{"source": "patent US10577610B2", "about": "“EpCAM aptamers and conjugates thereof” (Deakin University, priority 2015, dated 2020)", "key": {"[1]": {"molecular_target": "T1, native EpCAM protein expressed on the cell surface (HEY cells) (Homo sapiens, UniProt P16422)", "T1 construct": "host or cells: HEY ovarian cancer cells", "T1 sequence (P16422 24-314)": "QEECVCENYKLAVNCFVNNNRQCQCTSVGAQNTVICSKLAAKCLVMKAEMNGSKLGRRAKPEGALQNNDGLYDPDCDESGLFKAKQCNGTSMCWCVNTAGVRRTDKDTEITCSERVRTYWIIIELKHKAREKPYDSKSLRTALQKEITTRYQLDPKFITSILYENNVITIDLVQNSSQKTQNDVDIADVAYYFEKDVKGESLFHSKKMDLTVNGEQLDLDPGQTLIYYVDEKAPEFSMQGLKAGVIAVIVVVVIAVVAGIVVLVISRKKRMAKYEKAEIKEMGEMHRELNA", "assay": "Flow cytometry binding assay on HEY cells (EpCAM-positive)", "settings": "HEY (EpCAM-positive) cells, flow cytometry, n=3", "experimental": "In order to determine the binding affinity (equilibrium dissociation constant KD) of the aptamers. Binding assays were conducted to measure the binding to native EpCAM protein expressed on the cell surface. The aptamers were incubated with the cells at concentrations ranging from 0 nM to 400 nM. These were subsequently analysed by flow cytometry. Aptamers were thawed from storage (−20° C.) prior to use. These were then diluted via serial dilutions with phosphate buffered saline (PBS) in order to achieve the desired concentrations. PBS was supplemented with a MgCl2 concentration appropriate for the aptamer (1 mM for anti-TfR aptamers; 5 mM for conjugate aptamers). Aptamers were then folded into their 3D structures using a thermocycler (85° C. for 5 minutes, slow cooling to 22° C. over 10 minutes and 37° C. for 15 minutes).\nConcurrently, subcultured cells were incubated in blocking buffer (PBS with 10% FCS, 1 mg/mL BSA, 0.1 mg/mL tRNA) for 30 minutes. Following centrifugation, blocking buffer was removed and cells were resuspended in binding buffer (PBS with 10% FCS, 1 mg/mL BSA, 0.1 mg/mL tRNA). Cells (50 μL) were then incubated with the aptamers (50 μL) for 30 minutes at 37° C. at a range of concentrations (0 nM, 20 nM, 40 nM, 60 nM, 80 nM, 100 nM, 200 nM, 400 nM). Following this, cells were washed in 100 μL PBS three times before final resuspension for flow cytometry.\nAptamers were incubated with the chosen cell lines (bEnd.3 cells, mouse cells positive for TfR; HEY cells, human ovarian cancer cell line positive for EpCAM; and MOLT4 human cells negative for both TfR and EpCAM) at a range of concentrations. Aptamer-bound cells were analysed using a FACS Canto II flow cytometer (Becton Dickinson), counting 10,000 events for each sample, in order to determine the binding affinity of the aptamers. […] The value for the auto fluorescent 0 nM concentration was subtracted from the other figures to account for background fluorescence (Li N et al (2009) Journal of Proteome Research 8(5):2438-48). The resultant values were then used to determine the dissociation constant (KD) via the Graph Pad Prism 3 software. […]\nThe binding affinities of aptamers Bi1, Bi2 and Bi3 were determined semi-quantitatively via flow cytometry, using bEnd.3 cells to assess reactivity with TfR, HEY cells to determine EpCAM specificity and the MOLT4 cell line as a negative control. Three independent binding assays were performed for these aptamer against all three cell lines (bEnd.3, HEY and MOLT4). […]"}, "[2]": {"tested_on": "HT29 and HEY cells", "assay": "Confocal microscopy internalisation of EpCAM aptamers into EpCAM positive cells", "type": "cell-based", "settings": "200 nM, 60 min", "experimental": "The ability of each DNA EpCAM aptamer to be internalised was established through confocal microscopy. HT29, HEY, K652 and HEK293T were seeded at 8×10^5 cells per well in 8-chamber slide for 24 h in preparation for confocal […]. Cells were incubated with blocking buffer for 60 min, followed by resuspension in binding buffer and containing 200 nM EpCAM aptamer or negative control aptamer and incubated for 60 min at 37° C. Bisbenzimide Hoechst 33342 (3 mg/ml) (Sigma) was added to the cells during the final 10 min of incubation. The aptamer solution was removed and the cells were washed three times for 5 min each in PBS prior to visualisation using a FluoView FV10i laser scanning confocal microscope (Olympus)."}, "[3]": {"assay": "Doxorubicin loading efficiency by fluorescence spectroscopy", "settings": "mean±SEM", "from_the_text": "The anthracycline class of drugs, including DOX, have fluorescence properties that become quenched after intercalation into DNA (Valentini L et al (1985) II Farmaco edizione scientifica 40(6):377-90. The natural fluorescence of doxorubicin and its subsequent quenching after intercalating with the DNA EpCAM aptamers was utilised for the measurement of the extent of doxorubicin conjugation via Fluorescent Spectroscopy. The conjugation process was studied using different aptamer-doxorubicin molar ratios (0, 0.01, 0.04, 0.08, 0.1, 0.2, 0.3, 0.4, 0.5, and 0.6) and analysed with a fluorescence plate reader based on a standard curve of free doxorubicin.\nPrior to conjugation, aptamers were prepared for application as previously described. DOX was then combined with aptamer in conjugation buffer containing 0.1 M sodium acetate, 0.05 M NaCl, and 5 mM MgCl2 and incubated at 37° C. in an Orbital mixer/incubator (RATEK) for 1 hour with agitation (75 r.p.m). The conjugate was then passed through a Sephadex®G-10 medium column (Sigma-Aldrich) to separate the aptamer: doxorubicin conjugate from free DOX. As DOX has a natural fluorescence which is subsequently quenched following intercalation into double stranded DNA, this characteristic of DOX was exploited to determine the amount of DOX that was intercalated into the double stranded stem region of the conjugate aptamers. After column separation, DOX was extracted from the conjugate yield by adding 150 uL of acetonitrile. This solution was then centrifuged for 5 min at 21,000 g. Eighty microliters of supernatant was removed and fluorescent intensity was quantified with a fluorescent plate reader. A calibration standard curve was prepared with known concentrations of DOX under the same condition\nData was analysed using Graph Pad Prism 3 and data was reported as mean and standard error of the mean (mean±SEM) unless otherwise stated."}, "[4]": {"molecular_target": "T2, native EpCAM protein expressed on the cell surface (HT29 cells) (Homo sapiens, UniProt P16422)", "T2 construct": "endogenous in cells; host or cells: HT29 cells", "T2 sequence (P16422 24-314)": "T1 sequence (P16422 24-314)", "assay": "Flow cytometry binding assay on HT29 cells (EpCAM-positive)", "settings": "n=3", "experimental": "(§1) The equilibrium dissociation constant (KD) of each DNA EpCAM aptamer (Ep7, Ep8 and Ep9) was determined by measuring its binding to native EpCAM protein expressed on the cell surface using flow cytometry. HT29, HEY and HEK293T (5×10^5) cells were first incubated with blocking buffer (PBS containing 10% FCS, 1 mg/mL tRNA, 1 mg/mL BSA) for 30 minutes followed by a single wash with binding buffer (PBS containing 10% FCS, 1 mg/mL tRNA, 1 mg/mL BSA) prior to incubation with serial dilutions of concentrations of the respective TYE665-labelled aptamers (0 to 200 nM) in binding buffer for 30 min at 37° C. The cells were washed three times with PBS and resuspended in PBS prior to flow cytometric analysis. The fluorescent intensity was determined using a FACS Canto II flow cytometer (Becton Dickinson), counting 10,000 events for each sample. The mean fluorescent intensity of each concentration was […] the auto fluorescent control and the KD for each aptamer was calculated from the normalised values for fluorescent intensity."}, "[5]": {"tested_on": "HEK293T and K562", "assay": "Flow cytometry binding to EpCAM negative cell lines", "settings": "HEK293T and K562, 0 and 100 nM", "experimental": "as §1"}, "[6]": {"molecular_target": "T3, mouse TfR (Mus musculus, UniProt Q62351)", "T3 construct": "bEnd.3 cells, mouse cells positive for TfR; host or cells: bEnd.3 mouse cerebral endothelial cells", "T3 sequence (Q62351 whole entry)": "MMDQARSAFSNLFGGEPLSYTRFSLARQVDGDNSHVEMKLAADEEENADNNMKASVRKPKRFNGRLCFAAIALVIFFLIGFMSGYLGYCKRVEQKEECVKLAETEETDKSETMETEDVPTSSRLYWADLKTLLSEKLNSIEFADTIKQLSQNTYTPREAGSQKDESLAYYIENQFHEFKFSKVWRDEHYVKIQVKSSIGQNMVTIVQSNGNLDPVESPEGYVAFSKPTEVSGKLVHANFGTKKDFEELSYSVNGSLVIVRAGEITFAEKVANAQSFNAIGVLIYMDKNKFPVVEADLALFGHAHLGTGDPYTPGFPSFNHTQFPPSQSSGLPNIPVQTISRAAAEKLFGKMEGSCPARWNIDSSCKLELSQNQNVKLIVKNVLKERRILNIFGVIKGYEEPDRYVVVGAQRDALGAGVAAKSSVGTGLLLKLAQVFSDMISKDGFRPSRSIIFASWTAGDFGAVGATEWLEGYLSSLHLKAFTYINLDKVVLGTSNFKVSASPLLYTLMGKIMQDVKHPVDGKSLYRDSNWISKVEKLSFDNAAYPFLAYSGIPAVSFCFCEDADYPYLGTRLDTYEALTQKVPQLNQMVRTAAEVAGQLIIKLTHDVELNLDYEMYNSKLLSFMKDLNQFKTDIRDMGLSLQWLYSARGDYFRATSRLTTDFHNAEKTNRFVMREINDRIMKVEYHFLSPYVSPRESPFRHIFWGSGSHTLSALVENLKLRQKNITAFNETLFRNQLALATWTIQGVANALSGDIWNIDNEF", "assay": "Flow cytometry binding assay on bEnd.3 cells (TfR-positive)", "settings": "bEnd.3 (TfR-positive) cells, n=3", "experimental": "In order to determine the binding affinity (equilibrium dissociation constant KD) of the aptamers. Binding assays were conducted to measure the binding to native EpCAM protein expressed on the cell surface. The aptamers were incubated with the cells at concentrations ranging from 0 nM to 400 nM. These were subsequently analysed by flow cytometry. Aptamers were thawed from storage (-20° C.) prior to use. These were then diluted via serial dilutions with phosphate buffered saline (PBS) in order to achieve the desired concentrations. PBS was supplemented with a MgCl2 concentration appropriate for the aptamer (1 mM for anti-TfR aptamers; 5 mM for conjugate aptamers). […] Concurrently, subcultured cells were incubated in blocking buffer (PBS with 10% FCS, 1 mg/mL BSA, 0.1 mg/mL tRNA) for 30 minutes. Following centrifugation, blocking buffer was removed and cells were resuspended in binding buffer (PBS with 10% FCS, 1 mg/mL BSA, 0.1 mg/mL tRNA). Cells (50 μL) were then incubated with the aptamers (50 μL) for 30 minutes at 37° C. at a range of concentrations (0 nM, 20 nM, 40 nM, 60 nM, 80 nM, 100 nM, 200 nM, 400 nM). Following this, cells were washed in 100 μL PBS three times before final resuspension for flow cytometry. Aptamers were incubated with the chosen cell lines (bEnd.3 cells, mouse cells positive for TfR; HEY cells, human ovarian cancer cell line positive for EpCAM; and MOLT4 human cells negative for both TfR and EpCAM) at a range of concentrations. Aptamer-bound cells were analysed using a FACS Canto II flow cytometer (Becton Dickinson), counting 10,000 events for each sample, in order to determine the binding affinity of the aptamers. […] The value for the auto fluorescent 0 nM concentration was subtracted from the other figures to account for background fluorescence (Li N et al (2009) Journal of Proteome Research 8(5):2438-48). […] The binding affinities of aptamers TfR1, TfR2, […] determined semi-quantitatively via flow cytometry, using bEnd.3 mouse cerebral endothelial cells as a Tf R-positive cell line and MOLT4 acute lymphoblastic leukaemia cells-which express the human TfR, but not the mouse TfR (Sutherland R et al (1981) PNAS 78(7):4515-9)-as a negative control. Three independent binding assays were performed for each aptamer against each cell line. […] Three independent binding assays were performed for these aptamer against all three cell lines (bEnd.3, HEY and MOLT4)."}}, "note": "[invdT] = inverted (3'-3') thymidine; {TYE665} = TYE665 fluorescent dye", "data": [{"substance": "Scr Ex Ep7: scrambled extended Ep7 aptamer with randomly selected base pairs in the binding loop, SEQ ID NO:14 (CGCGCGCCGCATTCCTTTTGCGGCGCGCG; DNA, 5' {TYE665}, 3' [invdT], backbone not given here)", "values": [{"measurement": "Kd", "setting": "[1]", "result": "521 ± 272", "unit": "nM"}, {"measurement": "Internalisation by EpCAM positive cells", "setting": "[2]", "result": "not internalised"}, {"measurement": "Molar ratio aptamer:dox", "setting": "[3]", "result": "1.01 ± 0.01"}]}, {"substance": "Ep9: truncated DNA EpCAM aptamer derived from SYL3C, SEQ ID NO:12 (GGGGTTGGCCCC; DNA, 5' {TYE665}, 3' [invdT], backbone not given here)", "values": [{"measurement": "Kd", "setting": "[4]", "result": "31.8 ± 7.65", "unit": "nM"}, {"measurement": "Binding to EpCAM negative cell lines", "setting": "[5]", "result": "did not bind"}, {"measurement": "Kd", "setting": "[1]", "result": "266 ± 121", "unit": "nM"}, {"measurement": "Internalisation by EpCAM positive cells", "setting": "[2]", "result": "internalised"}, {"measurement": "Molar ratio aptamer:dox", "setting": "[3]", "result": "0.35 ± 0.06"}]}, {"substance": "Ep8: truncated DNA EpCAM aptamer derived from SYL3C, SEQ ID NO:11 (CCCACGTTGTCATGGG; DNA, 5' {TYE665}, 3' [invdT], backbone not given here)", "values": [{"measurement": "Kd", "setting": "[4]", "result": "6.19 ± 2.24", "unit": "nM"}, {"measurement": "Binding to EpCAM negative cell lines", "setting": "[5]", "result": "did not bind"}, {"measurement": "Kd", "setting": "[1]", "result": "696 ± 486", "unit": "nM"}, {"measurement": "Internalisation by EpCAM positive cells", "setting": "[2]", "result": "internalised"}, {"measurement": "Molar ratio aptamer:dox", "setting": "[3]", "result": "0.38 ± 0.06"}]}, {"substance": "5′ CACTACAGAGGTTGCGTCTGTCCCACGTTGTCATGGGGGGTTGGCCTG 3′ (CACTACAGAGGTTGCGTCTGTCCCACGTTGTCATGGGGGGTTGGCCTG; listed as DNA, chemistry not fully specified) [Full length EpCAM aptamer, reference compound]", "values": [{"measurement": "Kd", "setting": "[4]", "result": "9 ± 1.68", "unit": "nM"}, {"measurement": "Kd", "setting": "[1]", "result": "495 ± 147", "unit": "nM"}, {"measurement": "Molar ratio aptamer:dox", "setting": "[3]", "result": "0.53 ± 0.13"}]}, {"substance": "TfR1: truncated fourteen nucleotide DNA aptamer against mouse TfR, SEQ ID NO:4 (GCGTGTGCACACGC; DNA, backbone not given here; further chemistry not fully specified)", "values": [{"measurement": "Kd", "setting": "[6]", "result": "5760 ± 7120", "unit": "nM"}]}, {"substance": "Ex Ep7: extended Ep7 aptamer with the same binding loop as Ep7, SEQ ID NO:13 (CGCGCGCCGCAGGTTGCGTGCGGCGCGCG; DNA, 5' {TYE665}, 3' [invdT], backbone not given here)", "values": [{"measurement": "Kd", "setting": "[1]", "result": "63.7 ± 14.4", "unit": "nM"}, {"measurement": "Internalisation by EpCAM positive cells", "setting": "[2]", "result": "internalised"}, {"measurement": "Molar ratio aptamer:dox", "setting": "[3]", "result": "1.17 ± 0.02"}]}, {"substance": "Ep7: truncated DNA EpCAM aptamer derived from SYL3C, SEQ ID NO:9 (ACAGAGGTTGCGTCTG; DNA, [invdT] at 3' end, 5' {TYE665}, backbone not given here)", "values": [{"measurement": "Kd", "setting": "[4]", "result": "11 ± 2.79", "unit": "nM"}, {"measurement": "Binding to EpCAM negative cell lines", "setting": "[5]", "result": "did not bind"}, {"measurement": "Kd", "setting": "[1]", "result": "248 ± 82.2", "unit": "nM"}, {"measurement": "Internalisation by EpCAM positive cells", "setting": "[2]", "result": "internalised"}, {"measurement": "Molar ratio aptamer:dox", "setting": "[3]", "result": "0.42 ± 0.11"}]}, {"substance": "TfR2: version of TfR1 with scrambled binding loop sequence, SEQ ID NO:5 (DNA GCGTGGGCCCACGC; DNA, backbone not given here; further chemistry not fully specified)", "values": [{"measurement": "Kd", "setting": "[6]", "result": "525 ± 161", "unit": "nM"}]}]}
